“Also recorded” adds a separate entry of the source.
Assays:
Format in all cases: in vivo
[1] = system: C57B/6 mice; experiment: Whole gut transit time (WGTT), carmine red gavage; details: 1, 3 and 10 mg/kg by gavage in 50% propylene glycol; statistically significant at all doses
Experimental: Dose responses of the effect of Compound 1 on the whole gut transit time (WGTT) were examined. Compound 1 (0, 1, 3 and 10 mg/kg) in 50% propylene glycol was administrated by gavage (5 ml/kg), followed by gavage of 0.2 ml carmine red solution (6% carmine red in 0.5% methylcellulose) into C57B/6 mice. Mice were then placed in a white cardboard box and the time was recorded as time 0. The color of stool was observed every 10 min until the red dye appeared in stool. The time that first red stool appears was recorded as the ending time. The difference between the ending time and time 0 is used to present WGTT (min).

[2] = system: C57B/6 mice; experiment: Distal colon transit time (DCTT), glass bead expulsion; details: 3 mg/kg gavage
Experimental: We examined the time course of Compound 1 on distal colon transit time (DCTT) in C57B/6 mice to assess the colon motility. DCTT was performed by gently pushing a 2 mm glass bead into rectal 2 cm and then placing the mouse into a white box (time 0). The time that the glass bead was released from rectal is presented as DCTT (min). Mice were gavaged with 0 or 3 mg/kg of Compound 1 and DTCC was conducted at 30, 60, 90 and 120 min after the administration of Compound 1. […] The increase in the DCTT reached a peak at 90 min and returned at 2 hours after the administration of Compound 1 (FIG. 2).

[3] = Stool composition (total stool weight, water content); details: stools collected for 3 hours
Experimental: After gavage of Compound 1 (3 and 10 mg/kg), stools were collected immediately after expulsion for 3 hours. The wet stools were weighted as total stool weight followed by dry at 65° C. for 24 hours and weight as dry stool weight. The percent of water content in the stool was calculated by (total stool weight-dry stool weight)/total stool weight x 100.

[4] = system: IBS mice; experiment: Pain sensitivity in IBS mouse model (VMR to colorectal distension)
Experimental: IBS visceral pain model, induced by neonatal rectal irritation. Colonic pain sensitivity to graded colorectal balloon distension (CRD, 15, 30, 50 and 70 mmHg) was determined by visceromotor response (VMR) measured by electromyography of external oblique muscle.

[5] = Measurement of brain and plasma levels by LC/MS; details: mice, 10 mg/kg oral gavage, after 30 minutes
Experimental: Compound 1 was administered to 5 mice at a dose of 10 mg/kg as a solution in 50% propylene glycol by oral gavage (5 ml/kg), After 30 minutes, mice were sacrificed and plasma and brain were harvested. The concentration of Compound 1 in plasma and brain were measured by LC/MS.

**Q.** For `O=C(O)c1nc2n(n1)-c1ccc(Cl)cc1C(c1ccccc1F)=NC2` [Compound 1, 8-Chloro-6-(2-fluorophenyl)-4H-[1,2,4]triazolo[1,5-a][1,4]benzodiazepine-2-carboxylic acid], which “effect on whole gut transit time (WGTT)” value [1] is on record?
**A.** dose-dependently increased WGTT

**Q.** And the “time at which DCTT returned after administration” value [2]?
**A.** 2 h

**Q.** And the “time at which the increase in DCTT reached a peak” value [2]?
**A.** 90 min

**Q.** And the “effect on distal colon transit time (DCTT)” value ([2]; as early as 30 min after gavage)?
**A.** significantly increased the DCTT

**Q.** What about the “effect on percent of water content in the stool” value ([3]; 3 mg/kg gavage) of the same compound?
**A.** not

**Q.** And the “effect on total stool weight” value ([3]; 3 mg/kg gavage)?
**A.** not

**Q.** What about the “effect on percent of water content in the stool” value ([3]; 10 mg/kg gavage) of the same compound?
**A.** significantly reduced

**Q.** And the “effect on total stool weight” value ([3]; 10 mg/kg gavage)?
**A.** significantly reduced

**Q.** What about the “effect on hyperalgesia (VMR to CRD)” value ([4]; IBS mice, 10 mg/kg, Two-Way ANOVA) of the same compound?
**A.** significantly attenuated the hyperalgesia; also recorded: significantly reduced

**Q.** What about the “effect on pain sensitivity (VMR to CRD)” value ([4]; control mice, 10 mg/kg (data not shown)) of the same compound?
**A.** no effect was observed

**Q.** And the average plasma concentration [5]?
**A.** 1061+189 nM

**Q.** What about the concentration at 30 min ([5]; mouse, brain, limit of quantitation 62.5 nM) of the same compound?
**A.** < 62.5 nM

— patent US10844070B2, “Peripherally restricted GABA positive allosteric modulators for the treatment of irritable bowel syndrome and other ailments of the peripheral nervous system” (The Johns Hopkins University, priority 2014, dated 2020)
